Read-outs that look alike come from different tables or passages of the source.
Experiments:
[1] = Clinical trial LP0058-1442 in healthy volunteers: PK of modified-release tablet vs immediate-release capsule; type: in vivo, human; conditions: for AUC(0-t): human, plasma, oral, read-out: AUClast, NCA GM (CV %)
Method: The modified-release formulation was studied in a clinical trial (LP0058-1442) and administered in a total of 36 healthy volunteers: 18 in part 1, 9 in part 2, and 9 in part 3. Twenty-seven (27) healthy volunteers received a single administration of 30 mg orismilast, and 9 subjects received multiple administrations over a period of 17 days with an up-titration up to a maximum of 60 mg BID. Part 1 of this study was to evaluate the key PK parameters of the new modified-release formulation compared to the reference capsule formulation with immediate release. Orismilast was rapidly absorbed from both formulations with median tmax values of 3.00 hours post-dose for the immediate-release capsule and 2.52 hours post-dose for the modified-release tablet. The individual tmax ranges were approximately 1 to 6 hours post-dose for the immediate-release capsule and 1 to 4 hours post-dose for the modified-release tablet. […] It can therefore be reasonably assumed that the safety profile resulting from systemic effects can be extrapolated from studies having investigated the immediate-release formulation and in particular, study LP0058-1072, a Phase 2a study including 36 patients with moderate to severe psoriasis vulgaris.
Following administration of modified release tablet as a single oral dose and after multiple doses up to 60 mg, orismilast reached a Cmax around 3 h under fasting state.

[2] = tested on: adults with moderate-to-severe plaque-type psoriasis; assay: Phase 2b dose-ranging study in psoriasis (Example 3): efficacy (PASI), incl. body-weight sub-group and post-hoc analysis; type: in vivo, human
Excerpt: • Percentage change in Psoriasis […] and Severity Index (PASI) score from Baseline at Week 16. Key Secondary Endpoints • Patients achieving 75% reduction in PASI (PASI75) response at Week 16. • Patients achieving a score of Clear (0) or Almost Clear (1) and an at least 2-point improvement in Investigator Global Assessment (IGA) at Week 16. […] Safety Endpoints: • The occurrence, severity, and seriousness of treatment-emergent adverse events (TEAEs) reported over the 16-week Treatment Period and the 4-week Follow-up Period. • Changes from Baseline in physical examination; vital sign measurements (body temperature, respiration rate, heart rate, and systolic and diastolic blood pressure measurements); and body weight over the 16-week Treatment Period and the 4-week Follow-up Period. • Changes from Baseline in electrocardiogram (ECG) findings over the 16-week Treatment Period and the 4-week Follow-up Period. • Changes from Baseline in safety laboratory values (haematology, serum chemistry, and urinalysis) over the 16-week Treatment Period and the 4-week Follow-up Period. • Hospital Anxiety and Depression Scale at each visit except Week 2. • Columbia-Suicide Severity Rating Scale (C-SSRS) at each visit except Weeks 1 and 2. Exploratory Endpoints: • Change from Baseline in Physician's Global Assessment of Fingernails (PGA-F) at Week 16. • Change in Scalp-Specific Investigator Global Assessment (ss-IGA) from Baseline at Week 16 in the subgroup of patients with Baseline score of at least 2 (mild scalp psoriasis). • Change from Baseline of scalp itch Numeric Rating Scale (NRS) at Week 16 in the subgroup of patients with Baseline score of at least 4 on the 11-point NRS. • Change from Baseline in joint pain NRS at Week 16 in patients with psoriatic arthritis (PsA) and a Baseline joint pain score of at least 4. • Change in cardiovascular risk factors at Week 16. The following parameters will be collected: weight, body mass index, waist and hip circumferences, blood pressure, fasting serum glucose, triglycerides, cholesterol (total and high-density lipoprotein/low-density lipoprotein fractions), and C-reactive protein. • Change from Baseline in skin biomarkers at Week 16 collected via tape stripping and analysed using proteomic methods. • Plasma levels of the drug and its metabolites at scheduled visits. Study Design
A multicentre, randomized, double-blind, placebo-controlled, parallel group, Phase 2b dose-ranging study designed to assess the efficacy and safety of modified-release orismilast compared with placebo in adult patients with moderate-to-severe plaque-type psoriasis. Efficacy and safety outcomes will be evaluated to select an appropriate orismilast dose for subsequent Phase 3 studies.
After a Screening visit up to 28 days before Baseline, 202 patients were assigned randomly in a 1:1:1:1 ratio to receive 1 of the 3 orismilast doses (20 mg, 30 mg, or 40 mg) or placebo twice daily (BID) for 16 weeks, with a 4-week Follow-up visit. Administration will begin at Baseline with a dose titration period. The maximum duration of study participation was approximately 24 weeks.
At Baseline and each visit from Week 4 onwards, PASI, BSA, IGA, and PSS were assessed. Quality of life was assessed by administration of DLQI at Baseline and at Weeks 16 and 20 visits. Additional efficacy parameters include: an ss-IGA, a Physician Global Assessment of fingernail psoriasis (PGA-F), and patient's joint pain NRS for those with a diagnosis of PsA. These parameters were assessed at Baseline and Weeks 16 and 20. Safety evaluations include adverse events (Aes), laboratory and vital sign assessments, physical examinations, as well as mood change evaluation by patient (Hospital Anxiety and Depression Scale) and suicidal ideation evaluation by Investigator (C-SSRS). A panel of cardiovascular risk factors were assessed at Baseline and Week 16. […]

[3] = post-hoc group 20 mg BID (<100 kg)/30 mg BID (≥100 kg), NRI

O=C(Cc1c(Cl)c[n+]([O-])cc1Cl)c1ccc(OC(F)F)c2c1OC1(CCS(=O)(=O)CC1)O2 [orismilast, 2-(3,5-dichloro-1-oxidopyridin-1-ium-4-yl)-1-[7-(difluoromethoxy)-1′,1′-dioxospiro[1,3-benzodioxole-2,4′-thiane]-4-yl]ethanone]
AUC(0-t) ([1]; 10 mg, 1442 - Part 3 (D1 = 10 mg), N 9): 112 ng·h/mL | AUC(0-t) ([1]; 30 mg, 1442 - Part 1 (MR, 30 mg), N 18): 482 ng·h/mL | AUC(0-t) ([1]; 30 mg, 1442 - Part 2 (Fast, 30 mg), N 9): 480 ng·h/mL | AUC(0-t) ([1]; 60 mg, 1442 - Part 3 (D17 = 60 mg), N 9): 763 ng·h/mL | systemic exposure with high-fat meals ([1]; modified release tablet): significant increase | mean percentage change in PASI from baseline to Week 16 ([2]; 20 mg BID): −52.6% | PASI-75 responders ([2]; 20 mg BID, NRI): 35% | PASI-90 responders ([2]; 20 mg BID, NRI): 23% | PASI-100 responders ([2]; 20 mg BID, NRI): 8% | mean percentage change in PASI from baseline to Week 16 ([2]; 30 mg BID): −61.2% | PASI-75 responders ([2]; 30 mg BID, NRI): 44% | PASI-90 responders ([2]; 30 mg BID, NRI): 20% | PASI-100 responders ([2]; 30 mg BID, NRI): 8% | mean percentage change in PASI from baseline to Week 16 ([2]; 40 mg BID): −63.7% | efficacy of post-hoc group 20 mg BID (<100 kg)/30 mg BID (≥100 kg) relative to all pre-specified treatment arms ([2]; NRI): improved | efficacy of the 20 mg BID dose vs the 30 mg BID dose in patients weighing ≥100 kg ([2]; PASI50, PASI75, PASI90, weeks 4, 8, 12 and 16): less efficacious | efficacy of the 20 mg BID dose vs the 30 mg BID dose in patients weighing <100 kg at baseline ([2]; PASI75 and in particular PASI90): (similar or) more efficacious | treatment effect versus placebo, percentage change in PASI from baseline to Week 16 (primary endpoint) ([2]; all doses (20, 30, 40 mg BID)): statistically significant treatment effect | PASI-75 responders [2, 3]: 46% | PASI-90 responders [2, 3]: 29% | PASI-100 responders [2, 3]: 10% | efficacy (PASI50, PASI75, PASI90) of the 30 mg BID dose in patients weighing ≥100 kg compared to <100 kg at baseline ([2]; weeks 4, 8, 12 and 16): consistently higher
